Target: DC25
Experiment: SPR (Biacore T200, DC25 immobilized on CM5, […] Langmuir fit); also inhibits peroxidase activity of purified DC25
Format: binding, Lablab purpureus

Kd: 1.21 µM
SMILES: O=S(=O)(O)c1ccc(-c2c3nc(c(-c4ccc(S(=O)(=O)O)cc4)c4ccc([nH]4)c(-c4ccc(S(=O)(=O)O)cc4)c4nc(c(-c5ccc(S(=O)(=O)O)cc5)c5ccc2[nH]5)C=C4)C=C3)cc1 [TPPS4]

From paper PMC6934871, “High resolution structural and functional analysis of a hemopexin motif protein from Dolichos” (Scientific Reports, 2019)
